Measurements as given in patent publication US11208412B2 (DAEGU-GYEONGBUK MEDICAL INNOVATION FOUNDATION, priority 2017, dated 2021).

Tests used:
Test in all cases: Kinase selectivity, DiscoverX scanMAX Kinase assay panel (% control)
Type in all cases: binding
[1] = target: T1, kinases of the scanMAX Kinase assay panel (Homo sapiens, UniProt P46734); conditions: MEK3; 1 uM
T1 construct: purchased DiscoverX Co. (contract measurement) scanMAX Kinase assay panel
T1 sequence (P46734 1-347): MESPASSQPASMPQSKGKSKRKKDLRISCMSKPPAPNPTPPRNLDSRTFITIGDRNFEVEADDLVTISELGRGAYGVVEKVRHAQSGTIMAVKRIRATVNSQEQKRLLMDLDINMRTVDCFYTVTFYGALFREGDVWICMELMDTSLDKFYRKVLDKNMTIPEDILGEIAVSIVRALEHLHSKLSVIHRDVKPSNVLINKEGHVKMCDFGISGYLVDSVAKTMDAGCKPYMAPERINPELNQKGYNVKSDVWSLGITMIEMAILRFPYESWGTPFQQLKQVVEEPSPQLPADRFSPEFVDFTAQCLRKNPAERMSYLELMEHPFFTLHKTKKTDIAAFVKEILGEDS
Summary of the method: (§1)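 Read-out is % control, normalised so a positive-control compound sits at 0% and DMSO at 100%: (test − positive)/(negative − positive)×100. Each kinase received the compound at 1 uM in DMSO. A value below 35% counts as activity.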

[2] = target: T2, kinases of the scanMAX Kinase assay panel (Homo sapiens, UniProt Q07002); conditions: PCTK3; 1 uM
T2 construct: purchased DiscoverX Co. (contract measurement) scanMAX Kinase assay panel
T2 sequence (Q07002 whole entry): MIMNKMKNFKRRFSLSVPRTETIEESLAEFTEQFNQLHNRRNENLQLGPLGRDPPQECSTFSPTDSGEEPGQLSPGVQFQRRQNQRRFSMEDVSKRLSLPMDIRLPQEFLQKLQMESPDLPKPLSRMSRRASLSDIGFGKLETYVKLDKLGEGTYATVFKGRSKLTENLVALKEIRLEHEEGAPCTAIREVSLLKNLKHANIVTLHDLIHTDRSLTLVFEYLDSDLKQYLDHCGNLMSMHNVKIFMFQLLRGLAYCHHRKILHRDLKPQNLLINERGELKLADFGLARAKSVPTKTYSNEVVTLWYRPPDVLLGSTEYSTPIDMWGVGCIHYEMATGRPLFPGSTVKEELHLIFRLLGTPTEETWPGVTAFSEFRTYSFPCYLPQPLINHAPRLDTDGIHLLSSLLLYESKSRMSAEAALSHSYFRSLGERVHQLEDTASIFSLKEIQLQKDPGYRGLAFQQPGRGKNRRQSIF
Summary of the method: as §1

[3] = test system: kinases of the scanMAX Kinase assay panel; conditions: 1 uM
Summary of the method: as §1

[4] = target: T3, kinases of the scanMAX Kinase assay panel (Homo sapiens, UniProt P16234); conditions: PDGFRA; 1 uM
T3 construct: purchased DiscoverX Co. (contract measurement) scanMAX Kinase assay panel
Summary of the method: as §1

[5] = target: T4, kinases of the scanMAX Kinase assay panel (Homo sapiens, UniProt P07947); conditions: kinase YES; 1 uM in DMSO
T4 construct: purchased DiscoverX Co. (contract measurement) scanMAX Kinase assay panel
T4 sequence (P07947 whole entry): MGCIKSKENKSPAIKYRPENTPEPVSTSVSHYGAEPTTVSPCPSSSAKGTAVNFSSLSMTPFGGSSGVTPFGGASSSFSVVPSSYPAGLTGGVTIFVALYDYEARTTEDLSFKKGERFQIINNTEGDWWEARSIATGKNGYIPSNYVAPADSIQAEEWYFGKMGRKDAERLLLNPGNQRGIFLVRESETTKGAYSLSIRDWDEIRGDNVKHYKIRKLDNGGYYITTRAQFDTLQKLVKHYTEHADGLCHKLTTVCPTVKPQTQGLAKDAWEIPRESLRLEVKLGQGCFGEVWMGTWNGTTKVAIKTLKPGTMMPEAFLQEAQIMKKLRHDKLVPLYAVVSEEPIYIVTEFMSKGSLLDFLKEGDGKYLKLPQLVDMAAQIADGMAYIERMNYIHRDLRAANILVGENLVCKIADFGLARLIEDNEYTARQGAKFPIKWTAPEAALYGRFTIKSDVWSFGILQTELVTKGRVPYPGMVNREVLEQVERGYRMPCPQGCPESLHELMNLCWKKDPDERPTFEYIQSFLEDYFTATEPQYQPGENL
Summary of the method: as §1

[6] = target: T5, kinases of the scanMAX Kinase assay panel (Homo sapiens, UniProt P10721, L576P); conditions: KIT(L576P); 1 uM
T5 construct: purchased DiscoverX Co. (contract measurement) scanMAX Kinase assay panel
T5 sequence (P10721 26-976 L576P): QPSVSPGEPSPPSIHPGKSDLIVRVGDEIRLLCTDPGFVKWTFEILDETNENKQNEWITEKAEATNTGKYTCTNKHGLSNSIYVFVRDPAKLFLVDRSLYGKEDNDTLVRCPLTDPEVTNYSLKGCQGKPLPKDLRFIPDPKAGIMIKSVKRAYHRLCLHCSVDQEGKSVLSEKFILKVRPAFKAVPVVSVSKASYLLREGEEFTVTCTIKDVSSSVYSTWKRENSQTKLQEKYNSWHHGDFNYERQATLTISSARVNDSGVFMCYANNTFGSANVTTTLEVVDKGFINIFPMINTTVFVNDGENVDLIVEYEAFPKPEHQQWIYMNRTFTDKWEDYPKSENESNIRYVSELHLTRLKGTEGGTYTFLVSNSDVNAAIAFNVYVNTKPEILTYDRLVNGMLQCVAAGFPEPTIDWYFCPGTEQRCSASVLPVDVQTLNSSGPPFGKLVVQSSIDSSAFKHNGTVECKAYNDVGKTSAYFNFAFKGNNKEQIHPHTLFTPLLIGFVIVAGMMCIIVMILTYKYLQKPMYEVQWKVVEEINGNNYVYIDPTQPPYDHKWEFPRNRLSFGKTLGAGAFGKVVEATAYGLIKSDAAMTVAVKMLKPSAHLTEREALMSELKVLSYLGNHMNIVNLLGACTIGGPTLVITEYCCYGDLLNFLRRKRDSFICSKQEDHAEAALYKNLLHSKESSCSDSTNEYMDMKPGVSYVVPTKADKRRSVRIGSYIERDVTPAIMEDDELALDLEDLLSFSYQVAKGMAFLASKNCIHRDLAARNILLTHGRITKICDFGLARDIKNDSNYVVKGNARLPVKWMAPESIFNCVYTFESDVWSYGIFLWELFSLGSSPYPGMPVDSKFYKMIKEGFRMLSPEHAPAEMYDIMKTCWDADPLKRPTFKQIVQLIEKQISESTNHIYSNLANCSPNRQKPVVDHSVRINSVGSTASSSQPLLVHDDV
Summary of the method: as §1

[7] = target: T6, kinases of the scanMAX Kinase assay panel (Homo sapiens, UniProt O95819); conditions: MAP4K4; 1 uM
T6 construct: purchased DiscoverX Co. (contract measurement) scanMAX Kinase assay panel
T6 sequence (O95819 whole entry): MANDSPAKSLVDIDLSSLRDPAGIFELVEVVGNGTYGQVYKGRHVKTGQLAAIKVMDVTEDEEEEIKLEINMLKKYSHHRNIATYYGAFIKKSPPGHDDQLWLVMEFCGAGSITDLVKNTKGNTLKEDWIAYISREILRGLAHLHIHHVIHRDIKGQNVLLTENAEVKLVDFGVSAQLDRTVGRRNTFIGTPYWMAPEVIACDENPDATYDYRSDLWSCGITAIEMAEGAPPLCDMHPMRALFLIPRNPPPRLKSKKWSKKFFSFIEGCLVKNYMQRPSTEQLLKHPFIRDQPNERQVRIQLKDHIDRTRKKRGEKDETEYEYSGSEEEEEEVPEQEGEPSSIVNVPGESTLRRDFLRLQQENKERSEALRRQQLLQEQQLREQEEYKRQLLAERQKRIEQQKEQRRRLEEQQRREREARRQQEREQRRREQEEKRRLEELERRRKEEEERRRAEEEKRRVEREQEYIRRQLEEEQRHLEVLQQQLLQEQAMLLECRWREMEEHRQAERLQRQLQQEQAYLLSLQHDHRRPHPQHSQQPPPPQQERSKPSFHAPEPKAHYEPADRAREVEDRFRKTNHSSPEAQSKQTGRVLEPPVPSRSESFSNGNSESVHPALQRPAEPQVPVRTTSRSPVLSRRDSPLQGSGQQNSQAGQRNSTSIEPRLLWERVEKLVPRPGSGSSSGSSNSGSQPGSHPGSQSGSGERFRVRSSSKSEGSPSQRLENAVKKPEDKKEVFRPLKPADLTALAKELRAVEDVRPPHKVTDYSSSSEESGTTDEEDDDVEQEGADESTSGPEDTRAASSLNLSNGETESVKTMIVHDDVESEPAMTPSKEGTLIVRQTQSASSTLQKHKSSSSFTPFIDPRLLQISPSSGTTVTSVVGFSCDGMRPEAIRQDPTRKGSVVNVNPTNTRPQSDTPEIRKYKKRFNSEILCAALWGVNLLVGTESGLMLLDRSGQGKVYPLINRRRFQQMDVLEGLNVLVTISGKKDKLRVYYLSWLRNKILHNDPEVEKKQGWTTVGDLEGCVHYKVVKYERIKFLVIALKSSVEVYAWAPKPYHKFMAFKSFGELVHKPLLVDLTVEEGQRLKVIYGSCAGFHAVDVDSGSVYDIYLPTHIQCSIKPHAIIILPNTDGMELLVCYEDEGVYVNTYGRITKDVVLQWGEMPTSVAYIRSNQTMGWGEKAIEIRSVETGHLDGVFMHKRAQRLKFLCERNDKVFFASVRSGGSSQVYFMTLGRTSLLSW
Summary of the method: as §1

[8] = target: T7, kinases of the scanMAX Kinase assay panel (Homo sapiens, UniProt P22455); conditions: FGFR4; 1 uM
T7 construct: purchased DiscoverX Co. (contract measurement) scanMAX Kinase assay panel
Summary of the method: as §1

[9] = target: T8, kinases of the scanMAX Kinase assay panel (Homo sapiens, UniProt P00519, Q252H); conditions: 1 uM
T8 construct: purchased DiscoverX Co. (contract measurement) scanMAX Kinase assay panel
Summary of the method: as §1

[10] = target: T9, kinases of the scanMAX Kinase assay panel (Homo sapiens, UniProt Q9NSY1); conditions: BIKE; 1 uM
T9 construct: purchased DiscoverX Co. (contract measurement) scanMAX Kinase assay panel
T9 sequence (Q9NSY1 whole entry): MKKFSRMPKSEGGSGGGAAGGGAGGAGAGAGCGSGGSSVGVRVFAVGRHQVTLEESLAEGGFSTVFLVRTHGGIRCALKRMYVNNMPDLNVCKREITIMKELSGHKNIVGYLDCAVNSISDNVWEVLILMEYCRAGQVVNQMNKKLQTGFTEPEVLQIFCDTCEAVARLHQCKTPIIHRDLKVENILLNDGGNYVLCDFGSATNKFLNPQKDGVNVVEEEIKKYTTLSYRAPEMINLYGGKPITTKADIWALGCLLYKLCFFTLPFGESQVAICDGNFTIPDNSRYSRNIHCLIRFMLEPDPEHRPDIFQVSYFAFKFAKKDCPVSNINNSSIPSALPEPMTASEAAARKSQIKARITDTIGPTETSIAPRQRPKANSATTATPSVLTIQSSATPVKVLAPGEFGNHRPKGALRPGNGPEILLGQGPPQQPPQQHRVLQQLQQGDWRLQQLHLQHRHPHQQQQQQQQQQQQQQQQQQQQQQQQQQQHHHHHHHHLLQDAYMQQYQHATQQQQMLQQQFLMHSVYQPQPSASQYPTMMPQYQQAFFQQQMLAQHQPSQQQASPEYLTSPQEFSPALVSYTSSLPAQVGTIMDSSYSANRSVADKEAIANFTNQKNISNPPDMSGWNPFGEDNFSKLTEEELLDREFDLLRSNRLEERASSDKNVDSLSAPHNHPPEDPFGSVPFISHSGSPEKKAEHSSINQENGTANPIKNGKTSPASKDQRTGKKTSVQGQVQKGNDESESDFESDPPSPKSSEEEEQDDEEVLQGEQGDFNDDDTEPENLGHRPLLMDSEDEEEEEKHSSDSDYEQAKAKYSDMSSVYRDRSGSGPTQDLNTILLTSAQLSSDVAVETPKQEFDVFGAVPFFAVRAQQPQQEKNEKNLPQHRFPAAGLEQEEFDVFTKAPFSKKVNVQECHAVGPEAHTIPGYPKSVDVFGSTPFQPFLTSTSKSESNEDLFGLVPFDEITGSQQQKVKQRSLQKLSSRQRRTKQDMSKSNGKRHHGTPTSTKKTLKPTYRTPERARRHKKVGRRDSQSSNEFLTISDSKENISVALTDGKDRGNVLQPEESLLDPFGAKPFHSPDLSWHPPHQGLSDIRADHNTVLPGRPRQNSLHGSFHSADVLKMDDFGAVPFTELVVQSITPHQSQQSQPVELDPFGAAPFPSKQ
Summary of the method: as §1

[11] = target: T10, kinases of the scanMAX Kinase assay panel (Homo sapiens, UniProt O14936); conditions: CASK; 1 uM
T10 construct: purchased DiscoverX Co. (contract measurement) scanMAX Kinase assay panel
T10 sequence (O14936 1-926): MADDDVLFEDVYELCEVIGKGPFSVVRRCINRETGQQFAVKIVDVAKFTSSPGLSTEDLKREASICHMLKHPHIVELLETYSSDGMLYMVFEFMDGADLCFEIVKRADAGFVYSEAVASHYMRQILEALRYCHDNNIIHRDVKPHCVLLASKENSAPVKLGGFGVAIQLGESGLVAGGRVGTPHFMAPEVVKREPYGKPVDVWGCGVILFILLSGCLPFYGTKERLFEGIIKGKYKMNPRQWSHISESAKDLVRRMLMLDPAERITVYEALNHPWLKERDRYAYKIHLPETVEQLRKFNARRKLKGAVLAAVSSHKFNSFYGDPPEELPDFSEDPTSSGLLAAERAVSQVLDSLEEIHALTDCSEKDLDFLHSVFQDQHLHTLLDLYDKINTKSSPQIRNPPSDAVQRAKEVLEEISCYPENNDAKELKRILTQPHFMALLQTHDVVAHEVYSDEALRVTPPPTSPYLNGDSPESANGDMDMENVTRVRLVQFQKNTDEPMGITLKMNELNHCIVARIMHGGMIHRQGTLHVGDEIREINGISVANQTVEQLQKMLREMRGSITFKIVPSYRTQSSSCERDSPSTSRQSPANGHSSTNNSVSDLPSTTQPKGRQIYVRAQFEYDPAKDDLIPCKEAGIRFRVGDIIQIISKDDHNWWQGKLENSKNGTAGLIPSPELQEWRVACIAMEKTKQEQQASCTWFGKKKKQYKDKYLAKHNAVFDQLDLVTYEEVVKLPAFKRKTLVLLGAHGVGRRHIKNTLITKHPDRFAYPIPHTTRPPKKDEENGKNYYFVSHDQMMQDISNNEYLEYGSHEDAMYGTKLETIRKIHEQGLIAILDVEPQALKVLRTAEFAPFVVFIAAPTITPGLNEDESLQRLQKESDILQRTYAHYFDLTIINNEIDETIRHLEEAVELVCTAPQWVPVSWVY
Summary of the method: as §1

| SMILES | remaining binding at 1 µM [1] | remaining binding at 1 µM [2] | % control ([3]; EGFR(L747-E749de1, A750P)) | % control ([3]; EGFR(L747-S752de1, P753S)) | % control ([3]; EGFR(L747-T751de1, Sins)) | % control ([3]; EPHAl) | % control ([3]; FLT3(ITD)) | % control ([3]; FLT3(ITD, D835V)) | % control ([3]; FLT3(ITD, F691L)) | remaining binding at 1 µM [4] | remaining binding at 1 µM [5] | remaining binding at 1 µM [6] | remaining binding at 1 µM [7] | remaining binding at 1 µM [8] | remaining binding at 1 µM ([9]; ABL1(Q252H)-nonphosphorylated) | remaining binding at 1 µM ([9]; ABL1(Q252H)-phosphorylated) | remaining binding at 1 µM [10] | remaining binding at 1 µM [11] |
| --- | --- | --- | --- | --- | --- | --- | --- | --- | --- | --- | --- | --- | --- | --- | --- | --- | --- | --- |
| CC1(Nc2nc(Nc3cnn([C@H]4CCN(C5COC5)C[C@@H]4F)c3Cl)nc3[nH]cc(C#N)c23)CC1 [Example 52, 2-((5-chloro-1-((3S,4S)-3-fluoro-1-(oxetane-3-yl)piperidine-4-yl)-1H-pyrazole-4-yl)amino)((1-methylcyclopropyl)amino)-7H-pyrrolo[2,3-d]pyrimidine-5-carbonitrile] | 0.8% | 81% | 38% | 49% | 68% | 58% | 0% | 0% | 0.7% | 9.7% | 10% | 0% | 18% | 31% | 1.1% | 0.25% | 0% | 91% |
| CNc1nc(Nc2ccc(C(=O)N3CCOCC3)cc2OC)nc2[nH]cc(C#N)c12 [Example 1, 2-((2-methoxy-4-(morpholine-4-carbonyl)phenyl)amino)-4-(methylamino)-7H-pyrrolo[2,3-d]pyrimidine-5-carbonitrile] | 4.3% | 96% | 98.0% | 100.0% | 61.0% | 93.0% | 83.0% | 51.0% | 47.0% | 15% | 100% | 41% | 82% | 89% | 57% | 100% | 62% | 69% |
| CCNc1nc(Nc2ccc(C(=O)N3CCC(N4CCOCC4)CC3)cc2OC)nc2[nH]cc(C(F)(F)F)c12 [Example 104, (4-((4-(ethylamino)-5-(trifluoromethyl)-7H-pyrrolo[2,3-d]pyrimidine-2-yl)amino)-3-methoxyphenyl)(4-morpholinopiperidine-1-yl)methanone] | 12% | 94% | 99% | 98% | 100% | 100% | 21% | 15% | 79% | 88% | 100% | 47% | 100% | 38% | 99% | 82% | 100% | 100% |
